≈ marks a conversion by molar mass, not a printed value.
Experiments:
Aurora A = tested on: Aurora A; design: method as in PMID 27406026; conditions: cited from earlier work
[1] = kinetic solubility by nephelometry; type: physicochemical; conditions: phosphate buffer, 25 °C, pH 7.4, aqueous buffer, kinetic from dmso stock, phosphate buffer pH 7.4, 1% DMSO, mean of two measurements, range in brackets
Description: The kinetic solubility of test compounds was determined by nephelometry. Dilution series of test compounds in DMSO with eight to ten different concentrations were prepared. The dilutions were pipetted (2 µL) into the cavities of a 96 well plate (CorningTM UV-transparent flat-bottom microtiter plate; Corning Incorporated, Kennebunk, ME, USA). A phosphate buffer solution pH 7.4 (198 µL) was added, so that the DMSO concentration in the measured solutions was 1%. Three wells were filled with DMSO and phosphate buffer pH 7.4 (2:198) and measured as blank values. The 96 well plate prepared in this way was measured with the NEPHELOstar® Plus nephelometer (BMG Labtech GmbH, Ortenberg, Germany, software: Omega 5.11) at a temperature of 25 °C. Previously, the plate was shaken at 500 rpm for 10 s and the laser intensity was set to 80%. The beam focus was set to 2.50 mm. If the test substance is completely soluble, only a scattering close to the blank value is detected. As soon as a critical concentration is reached in which the kinetic solubility of the test compound is exceeded, solid particles precipitate. Undissolved particles in the sample scatter the laser beam. The intensity of the scattered light is determined, which is proportional to the number of particles in the solution. The blank values were determined and subtracted from the measured values of the test compounds. By measuring different concentrations of the test substances, different intensities of the scattered light, indicated as RNU (relative nephelometric units), were determined. Kick off curves were obtained by plotting concentrations against the RNU values. The point of intersection of the horizontal and of the ascending part of the kick-off curve indicated the kinetic solubility concentration.

Aurora-A = target: T1, Aurora-A (Homo sapiens, UniProt O14965); assay: radiometric 33PanQinase protein kinase assay; type: biochemical; conditions: radiometric assay, 1 µM ATP
T1 construct: host or cells: Sf9 (baculovirus)
T1 sequence (O14965 1-403): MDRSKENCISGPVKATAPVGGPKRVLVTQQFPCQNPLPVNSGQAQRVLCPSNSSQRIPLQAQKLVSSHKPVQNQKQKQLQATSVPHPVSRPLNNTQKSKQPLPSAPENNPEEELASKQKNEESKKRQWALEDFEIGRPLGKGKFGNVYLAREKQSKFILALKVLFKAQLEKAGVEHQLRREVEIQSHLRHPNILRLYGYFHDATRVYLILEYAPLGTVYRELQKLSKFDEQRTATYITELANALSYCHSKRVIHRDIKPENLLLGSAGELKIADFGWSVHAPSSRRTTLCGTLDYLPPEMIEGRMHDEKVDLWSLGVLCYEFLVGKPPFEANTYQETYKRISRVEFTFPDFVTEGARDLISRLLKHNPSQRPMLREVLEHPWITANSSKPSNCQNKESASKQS
Description: (§1) The inhibitory activity of prototype 2a was determined in a panel of 24 tumor-relevant protein kinases using a radiometric assay. Only the kinases Aurora A, VEGF-R2 and VEGF-R3 were inhibited with single digit micromolar IC50 values (Table 2). Structural modifications were then implemented, particularly directed to improve inhibition of Aurora A. The so-designed congeners with small substituents at the aniline ring 2b–2n were examined for inhibition of Aurora A and of VEGF-R2, VEGF-R3 and Aurora B for comparison (Table 3).
(§2) The screening for protein kinase inhibition was performed with the radiometric ^33Panqinase activity assay at Reaction Biology Europe GmbH (Freiburg) using a robotic system (Beckmann Coulter/SagianRoboter) and 96-well plates (FlashPlates, Perkin/Elmer/NEN, Boston, MA, USA). In brief, the transfer of ^33P-phosphate into the substrate was measured with a microplate scintillation counter (Microbeta Trilux, Wallace). Protein kinases were expressed in Sf9 cells as recombinant glutathione S-transferase (GST) or polyhistidine (His)-tagged proteins in baculovirus. Isolation and purification of expressed kinases were performed with affinity chromatography by using GSH agarose (Sigma) or Ni-NTA agarose (Qiagen). The standard solution for each enzyme contained: 60 mM HEPES-NaOH (pH 7.5), 3 mM MgCl2, 3 µM sodium orthovanadate, 1.2 mM DTT, 50 µg/mL PEG20000 and 1 µM [γ-^33P]-ATP (approximately 5 × 10^5 cpm per well). In chronological order the reaction mixture was prepared: 20 µL standard solution, 5 µL ATP solution in water, 5 µL of the compound in 10% DMSO and 20 µL of enzyme/substrate mixture (50:50). Each kinase contained different substrates in different concentrations: 125 ng/50 µL Poly(Glu, Tyr)4:1 for 20 ng/50 µL IGF1-R, 25 ng/50 µL IGF1-R, 20 ng/50 µL EGF-R, 25 ng/50 µL EGF-R, 40 ng/50 µL EGF-R, 10 ng/50 µL EPHB4, 20 ng/50 µL EPHB4, 200 ng/50 µL ERBB2, 10 ng/50 µL SRC, 100 ng/50 µL FAK, 200 ng/50 µL FAK, 50 ng/50 µL VEGF-R2, 100 ng/50 µL VEGF-R3, 200 ng/50 µLTIE2; 250 ng/50 µL Poly(Glu, Tyr)4:1 for 200 ng/50 µL TIE2; 500 ng/50 µL tetra (LRRWSLG) for 50 ng/50 µL Aurora-A, 25 ng/50 µL PAK4, 25 ng/50 µL PDK1; 250 ng/50 µL tetra (LRRWSLG) for 50 ng/50 µL Aurora-B, 200 ng/50 µL Aurora-B; 125 ng/50 µL Histon H1 for 100 ng/50 µL CDK2/CycA; 250 ng/50 µL Rb-CTF for 50 ng/50 µL CDK/CycD1; 500 ng/50 µL Rb-CTF for 50 ng/50 µL CDK4/CycD1; 125 ng/50 µL Poly(ala, Glu, Lys, Tyr)6:2:5:1 for 25 ng/50 µL INS-R, 50 ng/50 µL PDGFR-beta, 100 ng/50 µL PDGFR-beta, 100 ng/50 µL FLT3, 150 ng/50 µL FLT3, 20 ng/50 µL MET, 50 ng/50 µL MET, 100 ng/50 µL MET; 250 ng/50 µL Casein for 200 ng/50 µL CK2-alpha1, 200 ng/50 µL PLK1; 1000 ng/50 µL Casein for 200 ng/50 µL PLK1, 200 ng/50 µL CK2-alpha1; 1000 ng/50 µLGSK3 (14–27) for 100 ng/50 µL AKT1; 125 ng/50 µL p53-CTM for 150 ng/50 µL CK2-alpha1, 200 ng/50 µLCK2-alpha1; 250 ng/50 µL MEK-KM for 20 ng/50 µL B-RAF-VE; autophosphorylation at ARK5, COT and SAK. After incubation (80 min, 30 °C) the reaction was stopped by adding 50 µL 2% (v/v) phosphoric acid to the reaction mixture. The microplate was washed twice with 200 µL 0.9% (v/v) saturated sodium chloride or water. The measured radioactivity, conditioned by the incorporation of [γ-^33P]-phosphate, is proportional to kinase activity. Furthermore, low control and high control were measured to determine the residual activity (%). As low controls, mixtures with substrate, but without enzyme were used to determine the unspecific binding of [γ-^33P]-phosphate to the well plate. Mixtures with enzyme, but without inhibitor were used as high controls to determine maximum enzyme activity. The IC50-values of the distinct compounds were calculated with Quattro Workflow V1.1.0.8 (Quattro Research GmbH, München, Germany). Dose response curves were generated by measurement of the residual activity of ten different inhibitor concentrations (0.1 mM, 30.0 µM, 10 µM, 3.0 µM, 1.0 µM, 0.3 µM, 0.1 µM, 30.0 nM, 10.0 nM and 3.0 nM). […]

VEGF-R3 = target: T2, VEGF-R3 (Homo sapiens, UniProt P35916); assay: radiometric 33PanQinase protein kinase assay; type: biochemical; conditions: radiometric assay, 1 µM ATP
T2 construct: host or cells: Sf9 (baculovirus)
Description: as §1, §2

Aurora-B = target: T3, Aurora-B (Homo sapiens, UniProt Q96GD4); assay: radiometric 33PanQinase protein kinase assay; type: biochemical; conditions: radiometric assay, 1 µM ATP
T3 construct: host or cells: Sf9 (baculovirus)
Description: as §1, §2

VEGF-R2 = target: T4, VEGF-R2 (Homo sapiens, UniProt P35968); assay: radiometric 33PanQinase protein kinase assay; type: biochemical; conditions: radiometric assay, 1 µM ATP
T4 construct: host or cells: Sf9 (baculovirus)
Description: as §1, §2

T3 sequence (Q96GD4 whole entry): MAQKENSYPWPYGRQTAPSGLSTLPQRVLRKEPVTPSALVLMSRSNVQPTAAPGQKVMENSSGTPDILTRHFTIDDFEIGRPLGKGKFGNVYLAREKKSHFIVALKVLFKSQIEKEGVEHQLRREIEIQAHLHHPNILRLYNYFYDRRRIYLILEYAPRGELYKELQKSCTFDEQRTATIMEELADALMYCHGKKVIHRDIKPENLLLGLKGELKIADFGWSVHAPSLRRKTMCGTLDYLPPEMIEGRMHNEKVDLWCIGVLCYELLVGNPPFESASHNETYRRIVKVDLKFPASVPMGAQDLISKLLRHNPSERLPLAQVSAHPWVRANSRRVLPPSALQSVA
T4 sequence (P35968 20-1356): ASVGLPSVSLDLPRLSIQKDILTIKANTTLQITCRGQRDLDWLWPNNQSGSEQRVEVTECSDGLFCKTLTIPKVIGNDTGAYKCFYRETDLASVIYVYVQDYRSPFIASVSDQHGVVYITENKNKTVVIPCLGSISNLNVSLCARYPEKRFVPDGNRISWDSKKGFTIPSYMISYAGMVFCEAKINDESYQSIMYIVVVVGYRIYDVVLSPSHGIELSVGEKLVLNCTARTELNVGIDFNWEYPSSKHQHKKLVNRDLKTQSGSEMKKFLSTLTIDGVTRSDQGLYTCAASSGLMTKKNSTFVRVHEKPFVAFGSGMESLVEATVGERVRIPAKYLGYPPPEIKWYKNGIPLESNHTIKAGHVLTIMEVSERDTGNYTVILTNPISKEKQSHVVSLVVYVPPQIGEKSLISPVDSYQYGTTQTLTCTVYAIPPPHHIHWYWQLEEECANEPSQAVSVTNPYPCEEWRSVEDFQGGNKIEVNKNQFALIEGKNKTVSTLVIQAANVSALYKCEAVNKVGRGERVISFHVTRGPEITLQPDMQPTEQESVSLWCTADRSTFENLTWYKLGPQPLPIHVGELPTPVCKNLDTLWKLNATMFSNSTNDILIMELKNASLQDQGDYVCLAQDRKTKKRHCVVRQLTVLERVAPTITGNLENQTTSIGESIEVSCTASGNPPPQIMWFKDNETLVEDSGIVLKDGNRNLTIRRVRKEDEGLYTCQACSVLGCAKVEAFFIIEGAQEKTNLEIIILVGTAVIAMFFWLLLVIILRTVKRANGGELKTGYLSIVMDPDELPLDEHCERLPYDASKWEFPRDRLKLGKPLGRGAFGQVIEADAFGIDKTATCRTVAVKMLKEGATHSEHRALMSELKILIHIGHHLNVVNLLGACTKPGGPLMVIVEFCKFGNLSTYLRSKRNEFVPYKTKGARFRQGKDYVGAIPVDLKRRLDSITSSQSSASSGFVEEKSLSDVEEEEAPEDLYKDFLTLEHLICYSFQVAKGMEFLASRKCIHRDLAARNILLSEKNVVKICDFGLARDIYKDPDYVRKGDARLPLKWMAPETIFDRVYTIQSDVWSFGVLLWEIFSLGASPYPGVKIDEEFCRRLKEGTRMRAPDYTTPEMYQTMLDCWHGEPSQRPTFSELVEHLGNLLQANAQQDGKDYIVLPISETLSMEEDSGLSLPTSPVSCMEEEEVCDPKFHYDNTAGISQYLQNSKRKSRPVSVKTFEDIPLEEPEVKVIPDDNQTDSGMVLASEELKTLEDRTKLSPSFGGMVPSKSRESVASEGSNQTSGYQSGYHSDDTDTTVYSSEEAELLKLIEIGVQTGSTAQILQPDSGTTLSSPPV
T2 sequence (P35916 25-1363): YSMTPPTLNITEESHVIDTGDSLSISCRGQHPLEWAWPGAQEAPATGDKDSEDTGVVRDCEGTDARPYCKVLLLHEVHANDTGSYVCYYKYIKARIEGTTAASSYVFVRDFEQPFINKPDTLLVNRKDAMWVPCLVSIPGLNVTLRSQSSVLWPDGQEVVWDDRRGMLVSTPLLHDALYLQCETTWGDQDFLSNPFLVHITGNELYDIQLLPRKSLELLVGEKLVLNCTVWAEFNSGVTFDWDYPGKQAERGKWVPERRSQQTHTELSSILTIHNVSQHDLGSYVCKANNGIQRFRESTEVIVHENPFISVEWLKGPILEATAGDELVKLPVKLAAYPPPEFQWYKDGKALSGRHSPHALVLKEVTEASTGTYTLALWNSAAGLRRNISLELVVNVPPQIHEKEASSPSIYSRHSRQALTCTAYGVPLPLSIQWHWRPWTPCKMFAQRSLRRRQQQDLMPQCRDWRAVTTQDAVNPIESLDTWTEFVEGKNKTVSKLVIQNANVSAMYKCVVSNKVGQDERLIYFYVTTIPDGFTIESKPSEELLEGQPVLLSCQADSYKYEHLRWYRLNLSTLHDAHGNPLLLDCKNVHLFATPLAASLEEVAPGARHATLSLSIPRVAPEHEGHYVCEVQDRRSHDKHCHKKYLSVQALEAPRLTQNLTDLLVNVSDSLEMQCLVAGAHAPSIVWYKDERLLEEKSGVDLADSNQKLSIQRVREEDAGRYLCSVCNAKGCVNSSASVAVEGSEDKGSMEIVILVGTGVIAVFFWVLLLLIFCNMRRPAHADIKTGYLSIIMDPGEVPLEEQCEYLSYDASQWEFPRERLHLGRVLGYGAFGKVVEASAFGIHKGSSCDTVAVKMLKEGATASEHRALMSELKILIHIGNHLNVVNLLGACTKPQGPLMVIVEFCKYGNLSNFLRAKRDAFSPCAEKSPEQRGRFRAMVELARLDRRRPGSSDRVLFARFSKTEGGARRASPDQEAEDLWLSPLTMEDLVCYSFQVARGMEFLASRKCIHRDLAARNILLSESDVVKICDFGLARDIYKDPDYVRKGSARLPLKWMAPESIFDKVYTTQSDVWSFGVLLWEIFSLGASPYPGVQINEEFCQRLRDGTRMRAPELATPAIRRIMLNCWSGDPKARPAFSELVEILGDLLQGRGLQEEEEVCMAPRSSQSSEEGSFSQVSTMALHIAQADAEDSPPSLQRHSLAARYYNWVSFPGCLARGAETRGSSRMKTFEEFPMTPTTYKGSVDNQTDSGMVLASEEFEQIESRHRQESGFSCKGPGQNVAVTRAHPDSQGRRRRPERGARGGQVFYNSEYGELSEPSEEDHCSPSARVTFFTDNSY

Row | SMILES | IC50 (Aurora A) | solubility kinetic at 10 s [1] | IC50 (Aurora-A) | also measured
4 | COc1cc(Nc2ncc3c(n2)-c2ccc(Cl)cc2C(c2c(F)cccc2OC)=NC3)ccc1C(=O)O [alisertib] | 1.2 nM |  |  | 
5 | COc1ccc(Nc2nccc(-c3ccc4c(c3)CCCC(=O)N4)n2)cc1OCCCNS(=O)(=O)N1CCC1 [Compound 14g, N-{3-[2-Methoxy-5-((4-(2-oxo-2,3,4,5-tetrahydro-1H-benzo[b]azepin-7-yl)pyrimidin-2-yl)amino)phenoxy]-propyl}azetidine-1-sulfonamide] |  | 34.2 µM (≈ 18.9 µg/mL) | 820 nM | 
6 | O=C1CCCc2cc(-c3ccnc(Nc4cccc(O)c4)n3)ccc2N1 [Compound 2m, 7-[2-(3-Hydroxyanilino)pyrimidin-4-yl]-1,3,4,5-tetrahydro-2H-1-benzazepin-2-one] |  | 112 µM (≈ 38.8 µg/mL) | 1700 nM | IC50 (VEGF-R3): 540 nM; IC50 (Aurora-B): 6700 nM; IC50 (VEGF-R2): 780 nM
7 | COc1ccc(Nc2nccc(-c3ccc4c(c3)CCCC(=O)N4)n2)cc1OCCCNS(=O)(=O)N1CCOCC1 [Compound 14f, N-{3-[2-Methoxy-5-((4-(2-oxo-2,3,4,5-tetrahydro-1H-benzo[b]azepin-7-yl)pyrimidin-2-yl)amino)phenoxy]-propyl}morpholine-4-sulfonamide] |  | 25 µM (≈ 14.6 µg/mL) | 2500 nM | 
8 | O=C1CCCc2cc(-c3ccnc(Nc4cccc(OCCCNS(=O)(=O)N5CCC5)c4)n3)ccc2N1 [Compound 14d, N-{3-[3-((4-(2-Oxo-2,3,4,5-tetrahydro-1H-benzo[b]azepin-7-yl)pyrimidin-2-yl)amino)phenoxy]propyl}-azetidine-1-sulfonamide] |  | 25.2 µM (≈ 13.2 µg/mL) | 1500 nM | 

From article PMC7998669, “7-(2-Anilinopyrimidin-4-yl)-1-benzazepin-2-ones Designed by a “Cut and Glue” Strategy Are Dual Aurora A/VEGF-R Kinase Inhibitors” (Molecules, 2021)
